Numbers after ± are expanded uncertainties.
Tests used:
[1] = Liquid; for mass density: 101.33 kPa, vibrating tube; for vapor or sublimation pressure: ebulliometry; for Normal boiling temperature: Ebulliometric method (Recirculating still)
[2] = refractive index (Na D-line) (dimensionless); settings: 303.15 K, 101.33 kPa, Liquid
[3] = xn = mol fraction of the nth substance listed; settings: 101.3 kPa, Liquid
[4] = excess molar enthalpy (molar enthalpy of mixing); xn = mol fraction of the nth substance listed; settings: 101.3 kPa, Liquid, Calvet calorimetry

CC(C)(C)O [2-methylpropan-2-ol]
Settings	mass density [kg/m3]	refractive index	vapor or sublimation pressure [kPa]
[1], 303.15 K	775.37 ± 0.19	–	–
[1], 332.3 K	–	–	37.4 ± 0.18
[1], 333.03 K	–	–	38.69 ± 0.17
[1], 333.45 K	–	–	39.34 ± 0.18
[1], 334.6 K	–	–	41.37 ± 0.2
[1], 335.29 K	–	–	42.93 ± 0.2
[1], 335.87 K	–	–	43.85 ± 0.19
[1], 336.43 K	–	–	45.01 ± 0.22
[1], 337.17 K	–	–	46.69 ± 0.23
[1], 337.8 K	–	–	48.06 ± 0.22
[1], 338.37 K	–	–	49.27 ± 0.21
[1], 338.86 K	–	–	50.27 ± 0.23
[1], 339.5 K	–	–	51.81 ± 0.24
[1], 340.08 K	–	–	53.17 ± 0.23
[1], 340.59 K	–	–	54.25 ± 0.25
[1], 341.17 K	–	–	55.83 ± 0.25
[1], 341.63 K	–	–	56.78 ± 0.26
[1], 342.18 K	–	–	58.37 ± 0.27
[1], 342.68 K	–	–	59.61 ± 0.24
[1], 343.13 K	–	–	60.61 ± 0.27
[1], 343.7 K	–	–	62.3 ± 0.27
[1], 344.13 K	–	–	63.27 ± 0.28
[1], 344.68 K	–	–	64.99 ± 0.28
[1], 345.06 K	–	–	65.81 ± 0.26
[1], 345.49 K	–	–	67.05 ± 0.31
[1], 346.11 K	–	–	69.05 ± 0.31
[1], 346.51 K	–	–	70.21 ± 0.29
[1], 346.83 K	–	–	71.11 ± 0.3
[1], 347.28 K	–	–	72.45 ± 0.28
[1], 347.68 K	–	–	73.43 ± 0.32
[1], 348.2 K	–	–	75.35 ± 0.33
[1], 348.54 K	–	–	76.17 ± 0.3
[1], 348.9 K	–	–	77.42 ± 0.33
[1], 349.34 K	–	–	78.76 ± 0.32
[1], 349.74 K	–	–	80.07 ± 0.34
[1], 350.1 K	–	–	81.3 ± 0.34
[1], 350.53 K	–	–	82.71 ± 0.34
[1], 350.9 K	–	–	83.96 ± 0.37
[1], 351.33 K	–	–	85.66 ± 0.35
[1], 351.67 K	–	–	86.64 ± 0.35
[1], 352.05 K	–	–	88.15 ± 0.36
[1], 352.45 K	–	–	89.39 ± 0.34
[1], 352.8 K	–	–	90.67 ± 0.4
[1], 353.13 K	–	–	92.07 ± 0.39
[1], 353.5 K	–	–	93.39 ± 0.38
[1], 353.81 K	–	–	94.63 ± 0.38
[1], 354.18 K	–	–	95.95 ± 0.35
[1], 354.51 K	–	–	97.04 ± 0.37
[1], 354.85 K	–	–	98.36 ± 0.43
[1], 355.23 K	–	–	100.07 ± 0.4
[1], 355.5 K	–	–	100.88 ± 0.37
[1], 355.58 K	–	–	101.32 ± 0.36
[1], 355.83 K	–	–	102.22 ± 0.41
[1], 356.22 K	–	–	103.92 ± 0.45
[1], 356.52 K	–	–	105.27 ± 0.43
[1], 356.86 K	–	–	106.62 ± 0.39
[1], 357.15 K	–	–	107.71 ± 0.43
[1], 357.45 K	–	–	109.12 ± 0.45
[1], 357.77 K	–	–	110.47 ± 0.4
[1], 358.06 K	–	–	111.51 ± 0.41
[1], 358.35 K	–	–	112.83 ± 0.47
[1], 358.68 K	–	–	114.36 ± 0.44
[1], 358.96 K	–	–	115.48 ± 0.45
[1], 359.27 K	–	–	117 ± 0.46
[1], 359.84 K	–	–	119.53 ± 0.46
[1], 360.13 K	–	–	120.87 ± 0.46
[1], 360.46 K	–	–	122.36 ± 0.47
[1], 360.64 K	–	–	123.08 ± 0.46
[1], 360.97 K	–	–	124.73 ± 0.5
[1], 361.26 K	–	–	126.15 ± 0.46
[1], 361.47 K	–	–	126.96 ± 0.45
[1], 361.73 K	–	–	128.2 ± 0.49
[1], 362.02 K	–	–	129.63 ± 0.49
[1], 362.54 K	–	–	132.15 ± 0.51
[1], 362.75 K	–	–	133.36 ± 0.53
[1], 363.03 K	–	–	134.71 ± 0.51
[1], 363.08 K	–	–	134.81 ± 0.51
[1], 363.56 K	–	–	137.4 ± 0.55
[1], 363.82 K	–	–	138.8 ± 0.5
[1], 364.09 K	–	–	140.03 ± 0.5
[1], 364.33 K	–	–	141.29 ± 0.52
[1], 364.66 K	–	–	142.96 ± 0.54
[1], 365.09 K	–	–	145.34 ± 0.55
[1], 365.27 K	–	–	146.36 ± 0.55
[1], 365.62 K	–	–	148.18 ± 0.53
[1], 366.1 K	–	–	150.66 ± 0.56
[1], 366.51 K	–	–	153.08 ± 0.58
[1], 366.81 K	–	–	154.69 ± 0.55
[1], 367.08 K	–	–	156.16 ± 0.58
[1], 367.49 K	–	–	158.58 ± 0.57
[1], 367.83 K	–	–	160.39 ± 0.58
[1], 368.23 K	–	–	162.82 ± 0.62
[2], Standard Abbe refractometry	–	1.382 ± 0.0007	–

CCOC(=O)CC [ethyl propanoate]
Settings	mass density [kg/m3]	refractive index
[1], 298.15 K	883.95 ± 0.46	–
[2], Abbe refractometer	–	1.3791 ± 0.0005

Settings	Normal boiling temperature [°C]
[1]	98.76 ± 0.11

CCCC(=O)OCC [ethyl butanoate]
Settings	mass density [kg/m3]	refractive index
[1], 298.15 K	873.94 ± 0.9	–
[2], Abbe refractometer	–	1.388 ± 0.0006

Settings	Normal boiling temperature [°C]
[1]	121.02 ± 0.13

CCOC(=O)CC [ethyl propanoate] + CC(C)(C)O
Settings	excess molar enthalpy [kcal/mol]	excess molar volume [m3/mol]
[3], 303.15 K, x1 = 0.0345	–	7.6e-07 ± 6e-08
[3], 303.15 K, x1 = 0.0905	–	2.12e-06 ± 7e-08
[3], 303.15 K, x1 = 0.1495	–	3.31e-06 ± 7e-08
[3], 303.15 K, x1 = 0.1943	–	4.02e-06 ± 7e-08
[3], 303.15 K, x1 = 0.2497	–	4.82e-06 ± 8e-08
[3], 303.15 K, x1 = 0.2987	–	5.39e-06 ± 8e-08
[3], 303.15 K, x1 = 0.3496	–	5.77e-06 ± 9e-08
[3], 303.15 K, x1 = 0.3997	–	6.19e-06 ± 9e-08
[3], 303.15 K, x1 = 0.4466	–	6.39e-06 ± 9e-08
[3], 303.15 K, x1 = 0.4486	–	6.45e-06 ± 9e-08
[3], 303.15 K, x1 = 0.4998	–	6.48e-06 ± 9e-08
[3], 303.15 K, x1 = 0.5006	–	6.53e-06 ± 9e-08
[3], 303.15 K, x1 = 0.5163	–	6.52e-06 ± 9e-08
[3], 303.15 K, x1 = 0.5188	–	6.51e-06 ± 9e-08
[3], 303.15 K, x1 = 0.5569	–	6.47e-06 ± 9e-08
[3], 303.15 K, x1 = 0.5646	–	6.42e-06 ± 9e-08
[3], 303.15 K, x1 = 0.5964	–	6.31e-06 ± 9e-08
[3], 303.15 K, x1 = 0.6368	–	6.07e-06 ± 9e-08
[3], 303.15 K, x1 = 0.6458	–	6e-06 ± 9e-08
[3], 303.15 K, x1 = 0.7044	–	5.45e-06 ± 8e-08
[3], 303.15 K, x1 = 0.7533	–	4.87e-06 ± 8e-08
[3], 303.15 K, x1 = 0.8103	–	4.04e-06 ± 8e-08
[3], 303.15 K, x1 = 0.858	–	3.25e-06 ± 7e-08
[3], 303.15 K, x1 = 0.9096	–	2.24e-06 ± 7e-08
[3], 303.15 K, x1 = 0.9432	–	1.54e-06 ± 6e-08
[3], 318.15 K, x1 = 0.0694	–	1.85e-06 ± 6e-08
[3], 318.15 K, x1 = 0.1223	–	2.99e-06 ± 7e-08
[3], 318.15 K, x1 = 0.1759	–	3.87e-06 ± 7e-08
[3], 318.15 K, x1 = 0.2144	–	4.51e-06 ± 8e-08
[3], 318.15 K, x1 = 0.2746	–	5.29e-06 ± 8e-08
[3], 318.15 K, x1 = 0.3188	–	5.79e-06 ± 9e-08
[3], 318.15 K, x1 = 0.3648	–	6.16e-06 ± 9e-08
[3], 318.15 K, x1 = 0.4303	–	6.43e-06 ± 9e-08
[3], 318.15 K, x1 = 0.4669	–	6.5e-06 ± 9e-08
[3], 318.15 K, x1 = 0.5429	–	6.53e-06 ± 9e-08
[3], 318.15 K, x1 = 0.596	–	6.43e-06 ± 9e-08
[3], 318.15 K, x1 = 0.6662	–	6.05e-06 ± 9e-08
[3], 318.15 K, x1 = 0.7319	–	5.43e-06 ± 8e-08
[3], 318.15 K, x1 = 0.8088	–	4.45e-06 ± 8e-08
[3], 318.15 K, x1 = 0.8557	–	3.75e-06 ± 8e-08
[3], 318.15 K, x1 = 0.9183	–	2.28e-06 ± 7e-08
[4], 299.15 K, x1 = 0.0555	0.0801 ± 0.00287	–
[4], 299.15 K, x1 = 0.1332	0.183 ± 0.00335	–
[4], 299.15 K, x1 = 0.2151	0.271 ± 0.00406	–
[4], 299.15 K, x1 = 0.2979	0.346 ± 0.00454	–
[4], 299.15 K, x1 = 0.3767	0.397 ± 0.00502	–
[4], 299.15 K, x1 = 0.4164	0.417 ± 0.00526	–
[4], 299.15 K, x1 = 0.4497	0.428 ± 0.00526	–
[4], 299.15 K, x1 = 0.477	0.432 ± 0.0055	–
[4], 299.15 K, x1 = 0.5513	0.43 ± 0.00526	–
[4], 299.15 K, x1 = 0.6351	0.412 ± 0.00526	–
[4], 299.15 K, x1 = 0.73	0.354 ± 0.00478	–
[4], 299.15 K, x1 = 0.8294	0.257 ± 0.00406	–
[4], 299.15 K, x1 = 0.9242	0.132 ± 0.00311	–
[4], 318.15 K, x1 = 0.051	0.0699 ± 0.00263	–
[4], 318.15 K, x1 = 0.1094	0.14 ± 0.00311	–
[4], 318.15 K, x1 = 0.1681	0.209 ± 0.00359	–
[4], 318.15 K, x1 = 0.2276	0.271 ± 0.00406	–
[4], 318.15 K, x1 = 0.2892	0.328 ± 0.0043	–
[4], 318.15 K, x1 = 0.3477	0.367 ± 0.00478	–
[4], 318.15 K, x1 = 0.4028	0.395 ± 0.00502	–
[4], 318.15 K, x1 = 0.4347	0.41 ± 0.00526	–
[4], 318.15 K, x1 = 0.4528	0.415 ± 0.00526	–
[4], 318.15 K, x1 = 0.4786	0.424 ± 0.00526	–
[4], 318.15 K, x1 = 0.5297	0.425 ± 0.00526	–
[4], 318.15 K, x1 = 0.5872	0.419 ± 0.00526	–
[4], 318.15 K, x1 = 0.6499	0.398 ± 0.00502	–
[4], 318.15 K, x1 = 0.7164	0.36 ± 0.00478	–
[4], 318.15 K, x1 = 0.7897	0.3 ± 0.0043	–
[4], 318.15 K, x1 = 0.8641	0.217 ± 0.00382	–
[4], 318.15 K, x1 = 0.9381	0.114 ± 0.00311	–

CCOC=O [ethyl methanoate]
Settings	mass density [kg/m3]	refractive index
[1], 298.15 K	914.53 ± 0.94	–
[2], Abbe refractometer	–	1.355 ± 0.0006

Settings	Normal boiling temperature [°C]
[1]	54.14 ± 0.13

CCOC(C)=O [ethyl acetate]
Settings	mass density [kg/m3]	refractive index
[1], 298.15 K	894.44 ± 0.46	–
[2], Abbe refractometer	–	1.3675 ± 0.0005

Settings	Normal boiling temperature [°C]
[1]	77.10 ± 0.11
